This passage reports EC50 results from patent publication US9988400B2 (Genentech, Inc., priority 2013, dated 2018).

The target of the test is T1, HEK cells stably transfected with tetracycline inducible hNR1 and hNR2A (Homo sapiens, UniProt Q05586+Q12879).
T1 construct: expressed in transfected cells; host or cells: HEK cells, stably transfected, tetracycline/doxycycline inducible
As to the kind of experiment: Assay 1: Cell-Based Assay, cytosolic calcium response to positive allosteric modulators (with 30 μM glycine and 300 nM L-glutamate, EC30). Conditions: Table 3; cytosolic calcium response, with 30 μM glycine and 300 nM L-glutamate (EC30); — = no plateau was reached. The essentials:
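Cells induced 24 h with 7.5 μg mL^−1 doxycycline plus 500 μM (+)-ketamine, loaded 60 min at 37 °C with calcium dye in Mg-free HBSS (1.8 mM Ca, probenecid, 10 μM (+)-ketamine, pH 7.15). Peak RFU over 5 min after compound addition, scaled to 100 μM L-glutamate (100%) and 0 μM (0%); four-parameter Hill fit for EC50, max % if no plateau.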

pEC50: −log10 of the molar value.

T1 sequence (Q12879 23-1464, other chains not shown): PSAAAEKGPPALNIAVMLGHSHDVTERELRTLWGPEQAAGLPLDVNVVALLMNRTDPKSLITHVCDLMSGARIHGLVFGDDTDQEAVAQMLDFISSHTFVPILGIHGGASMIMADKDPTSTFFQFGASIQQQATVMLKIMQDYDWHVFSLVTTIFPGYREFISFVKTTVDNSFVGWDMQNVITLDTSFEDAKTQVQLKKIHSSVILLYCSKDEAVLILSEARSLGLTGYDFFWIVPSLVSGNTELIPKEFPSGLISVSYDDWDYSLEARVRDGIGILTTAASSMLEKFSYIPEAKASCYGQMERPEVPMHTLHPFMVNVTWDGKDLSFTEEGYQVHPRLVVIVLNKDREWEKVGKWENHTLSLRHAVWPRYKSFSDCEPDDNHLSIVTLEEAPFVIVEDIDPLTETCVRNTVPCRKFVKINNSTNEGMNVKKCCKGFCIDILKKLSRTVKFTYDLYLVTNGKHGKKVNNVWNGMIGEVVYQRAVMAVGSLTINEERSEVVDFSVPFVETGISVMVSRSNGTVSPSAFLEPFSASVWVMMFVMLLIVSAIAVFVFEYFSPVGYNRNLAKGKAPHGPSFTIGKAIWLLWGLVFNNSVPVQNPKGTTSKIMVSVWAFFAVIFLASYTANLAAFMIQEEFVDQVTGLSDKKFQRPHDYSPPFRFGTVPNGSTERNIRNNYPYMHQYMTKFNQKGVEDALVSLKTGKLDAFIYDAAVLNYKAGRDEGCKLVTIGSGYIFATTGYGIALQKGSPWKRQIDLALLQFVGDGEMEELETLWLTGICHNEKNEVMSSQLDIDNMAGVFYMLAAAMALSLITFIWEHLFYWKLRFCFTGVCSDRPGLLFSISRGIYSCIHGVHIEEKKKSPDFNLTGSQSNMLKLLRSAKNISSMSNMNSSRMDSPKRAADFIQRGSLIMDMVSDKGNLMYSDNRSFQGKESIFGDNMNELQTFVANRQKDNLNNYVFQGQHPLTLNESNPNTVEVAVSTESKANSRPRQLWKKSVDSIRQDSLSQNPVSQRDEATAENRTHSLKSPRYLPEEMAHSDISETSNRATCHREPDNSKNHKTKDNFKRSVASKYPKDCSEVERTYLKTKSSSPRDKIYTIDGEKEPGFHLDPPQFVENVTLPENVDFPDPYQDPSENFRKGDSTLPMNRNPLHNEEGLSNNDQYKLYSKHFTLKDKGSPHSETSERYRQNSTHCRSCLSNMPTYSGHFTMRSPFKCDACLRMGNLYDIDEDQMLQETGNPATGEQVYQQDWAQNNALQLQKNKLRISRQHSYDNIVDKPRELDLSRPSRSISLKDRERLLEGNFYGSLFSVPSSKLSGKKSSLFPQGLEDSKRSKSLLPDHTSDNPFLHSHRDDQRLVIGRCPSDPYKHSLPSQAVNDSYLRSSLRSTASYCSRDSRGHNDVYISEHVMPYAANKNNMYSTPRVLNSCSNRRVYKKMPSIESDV

For orientation: pEC50 means −log10 of the EC50, conventionally taken in molar units. On to `Cc1sc2nc(Cn3nncc3C3CC3)cc(=O)n2c1C1CC1CO` (stereo not shown) [compound 153, 7-[(5-Cyclopropyltriazol-1-yl)methyl]-3-[2-(hydroxymethyl)cyclopropyl]-2-methyl-thiazolo[3,2-a]pyrimidin-5-one], for which the pEC50 was 4.13. The same measure for `CCNC(=O)c1c(OCC)sc2nc(Cc3cccc(C(F)(F)F)c3F)cc(=O)n12` [compound 156, 2-ethoxy-N-ethyl-7-[[2-fluoro-3-(trifluoromethyl)phenyl]methyl]-5-oxo-thiazolo[3,2-a]pyrimidine-3-carboxamide]: 5.83. Under `Cc1sc2nc(Cn3nc(C(F)(F)F)cc3Cl)cc(=O)n2c1-c1cccnc1F` [compound 157, 7-[[5-chloro-3-(trifluoromethyl)pyrazol-1-yl]methyl]-3-(2-fluoro-3-pyridyl)-2-methyl-thiazolo[3,2-a]pyrimidin-5-one] stands 4.89.

Consider `Cc1sc2nc(Cn3nc(C(F)(F)F)cc3Cl)cc(=O)n2c1-c1ncco1` [compound 158, 7-[[5-chloro-3-(trifluoromethyl)pyrazol-1-yl]methyl]-2-methyl-3-oxazol-2-yl-thiazolo[3,2-a]pyrimidin-5-one], for which the negative-log EC50 (pEC50) is 5.85. As to `Cc1sc2nc(Cn3nc(Cl)cc3C(F)(F)F)cc(=O)n2c1-c1ncco1` [compound 159, 7-[[3-chloro-5-(trifluoromethyl)pyrazol-1-yl]methyl]-2-methyl-3-oxazol-2-yl-thiazolo[3,2-a]pyrimidin-5-one], the pEC50 is 5.12. For the compound `Cc1sc2nc(Cn3nc(C(F)(F)F)cc3Cl)cc(=O)n2c1C(F)(F)F` [compound 160, 7-[[5-chloro-3-(trifluoromethyl)pyrazol-1-yl]methyl]-2-methyl-3-(trifluoromethyl)thiazolo[3,2-a]pyrimidin-5-one], the negative-log EC50 (pEC50) was 6.12. For `Cc1sc2nc(Cn3nc(Cl)cc3C(F)(F)F)cc(=O)n2c1C(F)(F)F` [compound 161, 7-[[3-chloro-5-(trifluoromethyl)pyrazol-1-yl]methyl]-2-methyl-3-(trifluoromethyl)thiazolo[3,2-a]pyrimidin-5-one], the negative logarithm of the EC50 (pEC50) is 5.83. With `N#CC1CC1c1c(C(F)(F)F)sc2nc(Cc3cccc(C(F)(F)F)c3F)cc(=O)n12` (stereo not shown) [compound 162, 2-[7-[[2-fluoro-3-(trifluoromethyl)phenyl]methyl]-5-oxo-2-(trifluoromethyl)thiazolo[3,2-a]pyrimidin-3-yl]cyclopropanecarbonitrile], the negative logarithm of the EC50 (pEC50) was 6.70.

On to `Cc1sc2nc(CN(C)c3ccc(Cl)cn3)cc(=O)n2c1C1CC1CO` (stereo not shown) [compound 163, 7-[[(5-chloro-2-pyridyl)-methyl-amino]methyl]-3-[2-(hydroxymethyl)cyclopropyl]-2-methyl-thiazolo[3,2-a]pyrimidin-5-one], for which the pEC50 was 6.44. Turning to `CCNC(=O)c1c(C)sc2nc(Cn3nc(Cl)cc3Cl)cc(=O)n12` [compound 164, 7-[(3,5-dichloropyrazol-1-yl)methyl]-N-ethyl-2-methyl-5-oxo-thiazolo[3,2-a]pyrimidine-3-carboxamide], the pEC50 is 6.25. Take `CCNC(=O)c1c(OCC(F)(F)F)sc2nc(Cc3cccc(C(F)(F)F)c3F)cc(=O)n12` [compound 165, N-ethyl-7-[[2-fluoro-3-(trifluoromethyl)phenyl]methyl]-5-oxo-2-(2,2,2-trifluoroethoxy)thiazolo[3,2-a]pyrimidine-3-carboxamide]: the pEC50 was 5.86.

With `CC(=O)c1c(C(F)(F)F)sc2nc(Cn3nc(C(F)(F)F)cc3Cl)cc(=O)n12` [compound 166, 3-acetyl-7-[[5-chloro-3-(trifluoromethyl)pyrazol-1-yl]methyl]-2-(trifluoromethyl)thiazolo[3,2-a]pyrimidin-5-one], the pEC50 was 5.57.

Consider `CC(=O)c1c(C(F)(F)F)sc2nc(Cn3nc(Cl)cc3C(F)(F)F)cc(=O)n12` [compound 167, 3-acetyl-7-[[3-chloro-5-(trifluoromethyl)pyrazol-1-yl]methyl]-2-(trifluoromethyl)thiazolo[3,2-a]pyrimidin-5-one], for which the pEC50 is 5.28. The same measure for `C=C(C)c1c(C(F)(F)F)sc2nc(Cn3nc(C(F)(F)F)cc3Cl)cc(=O)n12` [compound 169, 7-[[5-chloro-3-(trifluoromethyl)pyrazol-1-yl]methyl]-3-isopropenyl-2-(trifluoromethyl)thiazolo[3,2-a]pyrimidin-5-one]: 5.13; for `Cc1sc2nc(Cn3nc(C(F)(F)F)cc3Cl)cc(=O)n2c1-c1ncc[nH]1` [compound 170, 7-[[5-chloro-3-(trifluoromethyl)pyrazol-1-yl]methyl]-3-(1H-imidazol-2-yl)-2-methyl-thiazolo[3,2-a]pyrimidin-5-one]: 6.09. For the compound `O=c1cc(Cn2nc(C(F)(F)F)cc2Cl)nc2sc(C(F)(F)F)c(-c3cncnc3)n12` [compound 171, 7-[[5-chloro-3-(trifluoromethyl)pyrazol-1-yl]methyl]-3-pyrimidin-5-yl-2-(trifluoromethyl)thiazolo[3,2-a]pyrimidin-5-one], the pEC50 is 5.92. Regarding `O=c1cc(Cn2nc(Cl)cc2C(F)(F)F)nc2sc(C(F)(F)F)c(-c3cncnc3)n12` [compound 172, 7-[[3-chloro-5-(trifluoromethyl)pyrazol-1-yl]methyl]-3-pyrimidin-5-yl-2-(trifluoromethyl)thiazolo[3,2-a]pyrimidin-5-one], the negative logarithm of the EC50 (pEC50) was 4.56. Consider `O=c1cc(Cn2nc(Cl)cc2C(F)(F)F)nc2sc(C(F)(F)F)c(-c3cccnc3)n12` [compound 173, 7-[[3-chloro-5-(trifluoromethyl)pyrazol-1-yl]methyl]-3-(3-pyridyl)-2-(trifluoromethyl)thiazolo[3,2-a]pyrimidin-5-one], for which the negative logarithm of the EC50 (pEC50) was 4.61. Consider `CCNC(=O)c1c(OCC(F)(F)F)sc2nc(Cn3nc(C(F)(F)F)cc3Cl)cc(=O)n12` [compound 174, 7-[[5-chloro-3-(trifluoromethyl)pyrazol-1-yl]methyl]-N-ethyl-5-oxo-2-(2,2,2-trifluoroethoxy)thiazolo[3,2-a]pyrimidine-3-carboxamide], for which the pEC50 is 5.78. Take `CCNC(=O)c1c(OCC)sc2nc(Cn3nc(C(F)(F)F)cc3Cl)cc(=O)n12` [compound 175, 7-[[5-chloro-3-(trifluoromethyl)pyrazol-1-yl]methyl]-2-ethoxy-N-ethyl-5-oxo-thiazolo[3,2-a]pyrimidine-3-carboxamide]: the pEC50 was 6.06. With `CCNC(=O)c1c(OCC)sc2nc(Cn3nc(Cl)cc3C(F)(F)F)cc(=O)n12` [compound 176, 7-[[3-chloro-5-(trifluoromethyl)pyrazol-1-yl]methyl]-2-ethoxy-N-ethyl-5-oxo-thiazolo[3,2-a]pyrimidine-3-carboxamide], the pEC50 is 5.05. As for `Cc1sc2nc(Cn3nc(C(F)(F)F)cc3Cl)cc(=O)n2c1C(=O)C(C)C` [compound 177, 7-[[5-chloro-3-(trifluoromethyl)pyrazol-1-yl]methyl]-2-methyl-3-(2-methylpropanoyl)thiazolo[3,2-a]pyrimidin-5-one], the negative logarithm of the EC50 (pEC50) was 6.91.

As for `Cc1sc2nc(Cn3nc(Cl)cc3C(F)(F)F)cc(=O)n2c1C(=O)C(C)C` [compound 178, 7-[[3-chloro-5-(trifluoromethyl)pyrazol-1-yl]methyl]-2-methyl-3-(2-methylpropanoyl)thiazolo[3,2-a]pyrimidin-5-one], the negative-log EC50 (pEC50) is 6.45. On to `CC[C@@H](C)NC(=O)c1c(C)sc2nc(Cc3cccc(C(F)(F)F)c3F)cc(=O)n12` [compound 179, 7-[[2-fluoro-3-(trifluoromethyl)phenyl]methyl]-2-methyl-N-[(1R)-1-methylpropyl]-5-oxo-thiazolo[3,2-a]pyrimidine-3-carboxamide], for which the negative-log EC50 (pEC50) is 6.16. The same measure for `CC[C@H](C)NC(=O)c1c(C)sc2nc(Cc3cccc(C(F)(F)F)c3F)cc(=O)n12` [compound 180, 7-[[2-fluoro-3-(trifluoromethyl)phenyl]methyl]-2-methyl-N-[(1S)-1-methylpropyl]-5-oxo-thiazolo[3,2-a]pyrimidine-3-carboxamide]: 5.53; for `Cc1sc2nc(CN(C)c3ccc(F)cn3)cc(=O)n2c1C1CC1CO` (stereo not shown) [compound 182, 7-[[(5-fluoro-2-pyridyl)-methyl-amino]methyl]-3-[2-(hydroxymethyl)cyclopropyl]-2-methyl-thiazolo[3,2-a]pyrimidin-5-one]: 6.76; for `COCc1c(C)sc2nc(Cn3nc(C(F)(F)F)cc3Cl)cc(=O)n12` [compound 183, 7-[[5-chloro-3-(trifluoromethyl)pyrazol-1-yl]methyl]-3-(methoxymethyl)-2-methyl-thiazolo[3,2-a]pyrimidin-5-one]: 5.28. As to `O=c1cc(Cn2nc(C(F)(F)F)cc2Cl)nc2sc(C(F)(F)F)c(C3CC3)n12` [compound 184, 7-[[5-chloro-3-(trifluoromethyl)pyrazol-1-yl]methyl]-3-cyclopropyl-2-(trifluoromethyl)thiazolo[3,2-a]pyrimidin-5-one], the negative logarithm of the EC50 (pEC50) is 5.00. `Cc1sc2nc(Cn3nc(C(F)(F)F)cc3Cl)cc(=O)n2c1CS(C)(=O)=O` [compound 185, 7-[[5-chloro-3-(trifluoromethyl)pyrazol-1-yl]methyl]-2-methyl-3-(methylsulfonylmethyl)thiazolo[3,2-a]pyrimidin-5-one]: the negative logarithm of the EC50 (pEC50) is 4.75. On to `Cc1sc2nc(Cn3nc(C(F)(F)F)cc3Cl)cc(=O)n2c1Cn1cccn1` [compound 186, 7-[[5-chloro-3-(trifluoromethyl)pyrazol-1-yl]methyl]-2-methyl-3-(pyrazol-1-ylmethyl)thiazolo[3,2-a]pyrimidin-5-one], for which the negative logarithm of the EC50 (pEC50) is 5.41.

In the case of `Cc1sc2nc(Cc3cc(C(F)(F)F)ccc3Cl)cc(=O)n2c1C1CC1C#N` (stereo not shown) [compound 187, 2-[7-[[2-chloro-5-(trifluoromethyl)phenyl]methyl]-2-methyl-5-oxo-thiazolo[3,2-a]pyrimidin-3-yl]cyclopropanecarbonitrile], the pEC50 is 4.95.
